# In ChEMBL document CHEMBL4507297, “Data for DCP probe PF-04457845” (2021):
# Legend:
# [1] = biological target: Vascular endothelial growth factor receptor 1 (Homo sapiens) (UniProt P17948); details: Compound concentration 1000.0 nM
# [2] = biological target: Mitogen-activated protein kinase kinase kinase kinase 2 (Homo sapiens) (UniProt Q12851); details: Compound concentration 1000.0 nM
# [3] = biological target: Serine/threonine-protein kinase PAK 2 (Homo sapiens) (UniProt Q13177); details: Compound concentration 1000.0 nM
# [4] = biological target: Serine/threonine-protein kinase PLK4 (Homo sapiens) (UniProt O00444); details: Compound concentration 1000.0 nM
# [5] = test system: Tyrosine-protein kinase ABL1 (Homo sapiens), P00519 [E255K]; details: Compound concentration 1000.0 nM
# [6] = biological target: Ribosomal protein S6 kinase alpha-3 (Homo sapiens) (UniProt P51812); details: Compound concentration 1000.0 nM
# [7] = test system: Serine/threonine-protein kinase B-raf (Homo sapiens), P15056 [V600E]; details: Compound concentration 1000.0 nM
# [8] = biological target: Serine/threonine-protein kinase Nek2 (Homo sapiens) (UniProt P51955); details: Compound concentration 1000.0 nM
# [9] = biological target: Tyrosine-protein kinase Fes/Fps (Homo sapiens) (UniProt P07332); details: Compound concentration 1000.0 nM
# [10] = biological target: 3-phosphoinositide-dependent protein kinase 1 (Homo sapiens) (UniProt O15530); details: Compound concentration 1000.0 nM
# 3-phosphoinositide-dependent protein kinase 1 (Homo sapiens), sequence (O15530 whole entry): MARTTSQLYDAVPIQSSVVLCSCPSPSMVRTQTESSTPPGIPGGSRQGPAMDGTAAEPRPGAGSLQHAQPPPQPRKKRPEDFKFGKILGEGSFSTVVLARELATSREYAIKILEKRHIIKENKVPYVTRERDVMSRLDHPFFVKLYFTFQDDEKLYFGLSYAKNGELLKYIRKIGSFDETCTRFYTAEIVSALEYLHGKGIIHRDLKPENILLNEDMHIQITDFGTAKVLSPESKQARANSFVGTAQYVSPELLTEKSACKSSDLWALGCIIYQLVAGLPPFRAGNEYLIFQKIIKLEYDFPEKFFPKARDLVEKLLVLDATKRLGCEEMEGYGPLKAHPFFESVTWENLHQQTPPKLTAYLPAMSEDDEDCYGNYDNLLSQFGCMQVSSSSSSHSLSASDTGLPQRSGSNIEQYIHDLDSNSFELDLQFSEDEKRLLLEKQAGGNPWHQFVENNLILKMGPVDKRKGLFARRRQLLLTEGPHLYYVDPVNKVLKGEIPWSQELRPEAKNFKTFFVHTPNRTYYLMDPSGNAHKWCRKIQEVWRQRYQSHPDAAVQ
# [11] = biological target: Macrophage colony-stimulating factor 1 receptor (Homo sapiens) (UniProt P07333); details: Compound concentration 1000.0 nM
# [12] = biological target: Myosin light chain kinase 2, skeletal/cardiac muscle (Homo sapiens) (UniProt Q9H1R3); details: Compound concentration 1000.0 nM
# [13] = biological target: Serine/threonine-protein kinase D1 (Homo sapiens) (UniProt Q15139); details: Compound concentration 1000.0 nM
# [14] = biological target: Myosin light chain kinase (Homo sapiens) (UniProt Q32MK0); details: Compound concentration 1000.0 nM
# [15] = test system: Mast/stem cell growth factor receptor Kit (Homo sapiens), P10721 [D816V]; details: Compound concentration 1000.0 nM
# [16] = biological target: Serine/threonine-protein kinase Nek9 (Homo sapiens) (UniProt Q8TD19); details: Compound concentration 1000.0 nM
# [17] = biological target: Tyrosine-protein kinase Fgr (Homo sapiens) (UniProt P09769); details: Compound concentration 1000.0 nM
# [18] = biological target: Phosphatidylinositol 4-phosphate 5-kinase type-1 gamma (Homo sapiens) (UniProt O60331); details: Compound concentration 1000.0 nM
# [19] = biological target: Tyrosine-protein kinase Blk (Homo sapiens) (UniProt P51451); details: Compound concentration 1000.0 nM
# Tyrosine-protein kinase Blk (Homo sapiens), sequence (P51451 2-505 limits assumed): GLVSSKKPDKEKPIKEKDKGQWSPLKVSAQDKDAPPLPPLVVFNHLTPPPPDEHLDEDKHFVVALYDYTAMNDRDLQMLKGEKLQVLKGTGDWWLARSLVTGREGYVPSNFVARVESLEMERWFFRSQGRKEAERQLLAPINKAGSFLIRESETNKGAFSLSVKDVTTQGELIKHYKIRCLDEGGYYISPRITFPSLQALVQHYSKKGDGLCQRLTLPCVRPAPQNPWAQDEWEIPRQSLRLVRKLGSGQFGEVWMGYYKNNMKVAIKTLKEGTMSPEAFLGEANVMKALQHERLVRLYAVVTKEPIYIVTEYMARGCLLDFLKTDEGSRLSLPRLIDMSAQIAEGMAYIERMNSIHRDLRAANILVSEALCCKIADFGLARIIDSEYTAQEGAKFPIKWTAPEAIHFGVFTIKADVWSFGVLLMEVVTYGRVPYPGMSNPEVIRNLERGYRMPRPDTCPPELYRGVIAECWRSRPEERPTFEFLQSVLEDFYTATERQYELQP
# [20] = biological target: TGF-beta receptor type-1 (Homo sapiens) (UniProt P36897); details: Compound concentration 1000.0 nM
# [21] = biological target: Calcium/calmodulin-dependent protein kinase kinase 2 (Homo sapiens) (UniProt Q96RR4); details: Compound concentration 1000.0 nM
# Calcium/calmodulin-dependent protein kinase kinase 2 (Homo sapiens), sequence (Q96RR4 2-588 limits assumed): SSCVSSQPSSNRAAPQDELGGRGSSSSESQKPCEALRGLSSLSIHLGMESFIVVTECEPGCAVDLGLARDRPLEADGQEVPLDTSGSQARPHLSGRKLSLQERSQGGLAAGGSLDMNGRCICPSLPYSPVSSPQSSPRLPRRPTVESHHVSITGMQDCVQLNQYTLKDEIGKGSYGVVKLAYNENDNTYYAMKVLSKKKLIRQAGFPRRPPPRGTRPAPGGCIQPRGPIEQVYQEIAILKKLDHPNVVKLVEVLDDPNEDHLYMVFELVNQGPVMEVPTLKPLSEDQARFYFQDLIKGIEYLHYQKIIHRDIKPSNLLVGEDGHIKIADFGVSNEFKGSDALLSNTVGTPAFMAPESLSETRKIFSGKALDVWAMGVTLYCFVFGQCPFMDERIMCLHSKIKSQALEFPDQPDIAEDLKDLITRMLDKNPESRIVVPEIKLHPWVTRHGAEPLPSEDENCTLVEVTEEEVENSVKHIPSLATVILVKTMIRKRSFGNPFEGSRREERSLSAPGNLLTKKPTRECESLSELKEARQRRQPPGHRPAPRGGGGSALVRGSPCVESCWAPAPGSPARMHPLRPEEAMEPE
# [22] = biological target: T1, Sigma intracellular receptor 2 (Homo sapiens, UniProt Q5BJF2); details: Compound concentration 10.0 uM
# T1 sequence (Q5BJF2 whole entry): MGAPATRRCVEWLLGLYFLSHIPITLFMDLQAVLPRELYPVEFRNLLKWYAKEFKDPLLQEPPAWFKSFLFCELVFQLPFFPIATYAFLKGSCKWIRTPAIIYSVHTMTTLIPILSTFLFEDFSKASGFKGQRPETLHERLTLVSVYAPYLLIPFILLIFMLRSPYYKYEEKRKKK
# [23] = biological target: Serine/threonine-protein kinase MARK1 (Homo sapiens) (UniProt Q9P0L2); details: Compound concentration 1000.0 nM
# [24] = biological target: Peripheral plasma membrane protein CASK (Homo sapiens) (UniProt O14936); details: Compound concentration 1000.0 nM
# [25] = biological target: Ephrin type-A receptor 7 (Homo sapiens) (UniProt Q15375); details: Compound concentration 1000.0 nM
# [26] = biological target: Mitogen-activated protein kinase kinase kinase kinase 3 (Homo sapiens) (UniProt Q8IVH8); details: Compound concentration 1000.0 nM
# [27] = test system: Tyrosine-protein kinase ABL1 (Homo sapiens), P00519 [Q252H]; details: Compound concentration 1000.0 nM
# [28] = biological target: RAC-gamma serine/threonine-protein kinase (Homo sapiens) (UniProt Q9Y243); details: Compound concentration 1000.0 nM
# [29] = biological target: Mitogen-activated protein kinase 15 (Homo sapiens) (UniProt Q8TD08); details: Compound concentration 1000.0 nM
# [30] = biological target: Inhibitor of nuclear factor kappa-B kinase subunit alpha (Homo sapiens) (UniProt O15111); details: Compound concentration 1000.0 nM
# [31] = biological target: T1, Sigma intracellular receptor 2; experiment: GPCRScan assay: inhibition of Sigma 2; parameters: radioligand conc. used [nm] 5.0, parental cells HEKT
# [32] = biological target: Serine/threonine-protein kinase SIK1 (Homo sapiens) (UniProt P57059); details: Compound concentration 1000.0 nM
# [33] = biological target: Ephrin type-A receptor 6 (Homo sapiens) (UniProt Q9UF33); details: Compound concentration 1000.0 nM
# Ephrin type-A receptor 6 (Homo sapiens), sequence (Q9UF33 whole entry): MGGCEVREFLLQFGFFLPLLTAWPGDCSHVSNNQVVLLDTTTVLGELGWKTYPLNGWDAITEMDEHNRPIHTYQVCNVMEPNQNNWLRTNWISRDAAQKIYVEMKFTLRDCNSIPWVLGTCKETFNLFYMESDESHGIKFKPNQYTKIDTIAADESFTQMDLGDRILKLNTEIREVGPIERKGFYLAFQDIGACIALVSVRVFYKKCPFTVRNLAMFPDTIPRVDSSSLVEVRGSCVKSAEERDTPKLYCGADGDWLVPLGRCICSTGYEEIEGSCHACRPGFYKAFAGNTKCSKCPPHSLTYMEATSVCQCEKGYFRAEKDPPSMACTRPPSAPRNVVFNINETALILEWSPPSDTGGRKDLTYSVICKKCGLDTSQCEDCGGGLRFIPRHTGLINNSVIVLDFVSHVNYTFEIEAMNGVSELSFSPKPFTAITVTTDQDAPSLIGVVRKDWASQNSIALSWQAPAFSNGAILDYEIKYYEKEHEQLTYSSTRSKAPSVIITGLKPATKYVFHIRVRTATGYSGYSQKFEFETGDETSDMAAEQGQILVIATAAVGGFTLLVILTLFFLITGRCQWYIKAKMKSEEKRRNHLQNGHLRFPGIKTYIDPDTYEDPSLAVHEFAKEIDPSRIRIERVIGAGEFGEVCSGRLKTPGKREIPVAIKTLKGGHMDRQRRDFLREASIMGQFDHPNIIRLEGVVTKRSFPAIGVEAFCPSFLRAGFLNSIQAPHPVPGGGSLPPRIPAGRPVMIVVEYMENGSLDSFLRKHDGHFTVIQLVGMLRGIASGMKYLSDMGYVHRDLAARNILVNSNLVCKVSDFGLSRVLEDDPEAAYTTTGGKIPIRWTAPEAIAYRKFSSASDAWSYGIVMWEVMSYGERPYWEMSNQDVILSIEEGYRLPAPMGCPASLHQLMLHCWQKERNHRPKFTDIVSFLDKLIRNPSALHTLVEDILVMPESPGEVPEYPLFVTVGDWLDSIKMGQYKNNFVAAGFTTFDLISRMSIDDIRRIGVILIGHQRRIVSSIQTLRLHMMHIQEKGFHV
# [34] = biological target: Serine/threonine-protein kinase 3 (Homo sapiens) (UniProt Q13188); details: Compound concentration 1000.0 nM
# [35] = biological target: Serine/threonine-protein kinase tousled-like 2 (Homo sapiens) (UniProt Q86UE8); details: Compound concentration 1000.0 nM
# Serine/threonine-protein kinase tousled-like 2 (Homo sapiens), sequence (Q86UE8 whole entry, looked up): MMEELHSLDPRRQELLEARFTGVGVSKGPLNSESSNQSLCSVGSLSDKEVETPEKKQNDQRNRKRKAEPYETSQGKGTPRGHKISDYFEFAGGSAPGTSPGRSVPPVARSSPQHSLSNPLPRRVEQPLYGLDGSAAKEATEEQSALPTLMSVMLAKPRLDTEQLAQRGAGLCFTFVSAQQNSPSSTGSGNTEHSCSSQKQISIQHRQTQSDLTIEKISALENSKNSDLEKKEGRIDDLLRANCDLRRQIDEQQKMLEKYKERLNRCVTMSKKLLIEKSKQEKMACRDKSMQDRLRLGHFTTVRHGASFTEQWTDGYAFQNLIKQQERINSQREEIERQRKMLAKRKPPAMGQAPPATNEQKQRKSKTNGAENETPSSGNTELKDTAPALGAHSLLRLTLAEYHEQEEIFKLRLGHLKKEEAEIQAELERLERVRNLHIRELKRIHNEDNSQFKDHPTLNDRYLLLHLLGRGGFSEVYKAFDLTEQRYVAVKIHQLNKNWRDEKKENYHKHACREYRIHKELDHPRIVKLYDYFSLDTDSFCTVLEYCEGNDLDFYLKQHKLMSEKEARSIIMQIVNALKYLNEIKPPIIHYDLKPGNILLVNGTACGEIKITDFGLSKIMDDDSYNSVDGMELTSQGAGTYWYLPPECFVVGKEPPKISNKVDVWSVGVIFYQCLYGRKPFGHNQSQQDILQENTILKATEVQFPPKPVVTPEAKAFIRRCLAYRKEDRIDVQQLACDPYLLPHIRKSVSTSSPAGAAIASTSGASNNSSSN
# [36] = biological target: Serine/threonine-protein kinase TNNI3K (Homo sapiens) (UniProt Q59H18); details: Compound concentration 1000.0 nM
# [37] = biological target: Mitogen-activated protein kinase kinase kinase 15 (Homo sapiens) (UniProt Q6ZN16); details: Compound concentration 1000.0 nM
# [38] = biological target: Muscarinic acetylcholine receptor M4 (Homo sapiens) (UniProt P08173); details: Compound concentration 10.0 uM
# Muscarinic acetylcholine receptor M4 (Homo sapiens), sequence (P08173 whole entry): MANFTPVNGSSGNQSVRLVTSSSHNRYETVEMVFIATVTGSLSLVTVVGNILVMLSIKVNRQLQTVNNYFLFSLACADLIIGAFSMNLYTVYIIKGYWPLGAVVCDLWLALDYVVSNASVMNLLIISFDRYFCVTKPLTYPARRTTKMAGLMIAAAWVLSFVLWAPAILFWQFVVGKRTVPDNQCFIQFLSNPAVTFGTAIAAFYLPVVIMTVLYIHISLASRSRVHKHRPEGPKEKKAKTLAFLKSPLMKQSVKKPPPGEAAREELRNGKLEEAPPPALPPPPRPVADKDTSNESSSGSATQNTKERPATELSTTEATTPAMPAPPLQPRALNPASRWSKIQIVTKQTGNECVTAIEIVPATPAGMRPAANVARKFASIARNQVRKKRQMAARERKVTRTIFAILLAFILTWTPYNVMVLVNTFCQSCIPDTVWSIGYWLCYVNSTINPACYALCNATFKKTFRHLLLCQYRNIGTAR
# [39] = biological target: Calcium/calmodulin-dependent protein kinase type 1D (Homo sapiens) (UniProt Q8IU85); details: Compound concentration 1000.0 nM
# [40] = test system: Epidermal growth factor receptor (Homo sapiens), P00533 [L858R]; details: Compound concentration 1000.0 nM
# [41] = biological target: Dual specificity protein kinase TTK (Homo sapiens) (UniProt P33981); details: Compound concentration 1000.0 nM
# Dual specificity protein kinase TTK (Homo sapiens), sequence (P33981 whole entry): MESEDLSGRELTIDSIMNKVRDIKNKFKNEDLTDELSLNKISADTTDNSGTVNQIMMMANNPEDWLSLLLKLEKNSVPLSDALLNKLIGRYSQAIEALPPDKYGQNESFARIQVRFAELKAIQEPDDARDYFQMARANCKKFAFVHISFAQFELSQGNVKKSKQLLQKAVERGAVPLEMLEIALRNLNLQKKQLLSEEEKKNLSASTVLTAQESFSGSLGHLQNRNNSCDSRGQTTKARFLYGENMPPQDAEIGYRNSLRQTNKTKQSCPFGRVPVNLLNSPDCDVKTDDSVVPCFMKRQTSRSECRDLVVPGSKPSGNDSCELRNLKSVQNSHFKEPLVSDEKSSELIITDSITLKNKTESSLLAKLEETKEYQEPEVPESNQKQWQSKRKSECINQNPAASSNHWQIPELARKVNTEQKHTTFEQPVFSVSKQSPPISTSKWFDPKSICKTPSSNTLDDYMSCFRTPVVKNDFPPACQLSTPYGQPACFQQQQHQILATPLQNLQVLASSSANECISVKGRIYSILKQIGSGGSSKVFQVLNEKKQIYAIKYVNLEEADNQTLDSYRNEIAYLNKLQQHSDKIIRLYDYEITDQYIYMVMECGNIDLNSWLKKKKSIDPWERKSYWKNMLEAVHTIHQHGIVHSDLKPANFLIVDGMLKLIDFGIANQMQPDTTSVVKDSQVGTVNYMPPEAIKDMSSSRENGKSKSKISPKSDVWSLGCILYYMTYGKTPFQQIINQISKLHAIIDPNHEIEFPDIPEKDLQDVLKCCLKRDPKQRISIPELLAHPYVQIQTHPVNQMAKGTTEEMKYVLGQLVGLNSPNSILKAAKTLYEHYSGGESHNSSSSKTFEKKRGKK
# [42] = biological target: Dual specificity mitogen-activated protein kinase kinase 5 (Homo sapiens) (UniProt Q13163); details: Compound concentration 1000.0 nM
# [43] = test system: Proto-oncogene tyrosine-protein kinase receptor Ret (Homo sapiens), P07949 [V804M]; details: Compound concentration 1000.0 nM
# [44] = biological target: Cyclin-dependent kinase 7 (Homo sapiens) (UniProt P50613); details: Compound concentration 1000.0 nM
# [45] = biological target: Fibroblast growth factor receptor 2 (Homo sapiens) (UniProt P21802); details: Compound concentration 1000.0 nM
smiles,measurement,setting,value
O=C(Nc1cccnn1)N1CC(C/C=C/c2cncc(Oc3ccc(C(F)(F)F)cn3)n2)C1,residual activity,[1],100%
same,residual activity,[2],80%
same,residual activity,[3],95%
same,residual activity,[4],98%
same,residual activity,[5],81%
same,residual activity,[6],89%
same,residual activity,[7],85%
same,residual activity,[8],100%
same,residual activity,[9],91%
same,residual activity,[10],97%
same,residual activity,[11],100%
same,residual activity,[12],87%
same,residual activity,[13],100%
same,residual activity,[14],85%
same,residual activity,[15],100%
same,residual activity,[16],100%
same,residual activity,[17],100%
same,residual activity,[18],100%
same,residual activity,[19],65%
same,residual activity,[20],100%
same,residual activity,[21],100%
same,inhibition,[22],69%
same,residual activity,[23],100%
same,residual activity,[24],64%
same,residual activity,[25],100%
same,residual activity,[26],100%
same,residual activity,[27],81%
same,residual activity,[28],100%
same,residual activity,[29],100%
same,residual activity,[30],69%
same,Ki,[31],8.41 µM
same,residual activity,[32],100%
same,residual activity,[33],100%
same,residual activity,[34],80%
same,residual activity,[35],100%
same,residual activity,[36],100%
same,residual activity,[37],81%
same,inhibition,[38],-7.53%
same,residual activity,[39],100%
same,residual activity,[40],97%
same,residual activity,[41],100%
same,residual activity,[42],88%
same,residual activity,[43],100%
same,residual activity,[44],81%
same,residual activity,[45],100%
O=C(Nc1cccnn1)N1CCC(=Cc2cccc(Oc3ccc(C(F)(F)F)cn3)c2)CC1,residual activity,[1],100%
same,residual activity,[2],100%
same,residual activity,[3],83%
same,residual activity,[4],100%
same,residual activity,[5],85%
same,residual activity,[6],100%
same,residual activity,[7],100%
same,residual activity,[8],100%
same,residual activity,[9],76%
same,residual activity,[10],85%
same,residual activity,[11],95%
same,residual activity,[12],88%
same,residual activity,[13],100%
same,residual activity,[14],100%
same,residual activity,[15],87%
same,residual activity,[16],100%
same,residual activity,[17],63%
same,residual activity,[18],66%
same,residual activity,[19],100%
same,residual activity,[20],61%
same,residual activity,[21],73%
same,inhibition,[22],91.3%
same,residual activity,[23],84%
same,residual activity,[24],92%
same,residual activity,[25],95%
same,residual activity,[26],100%
same,residual activity,[27],99%
same,residual activity,[28],100%
same,residual activity,[29],83%
same,residual activity,[30],93%
same,Ki,[31],0.437 µM
same,residual activity,[32],100%
same,residual activity,[33],78%
same,residual activity,[34],100%
same,residual activity,[35],100%
same,residual activity,[36],100%
same,residual activity,[37],100%
same,inhibition,[38],7.38%
same,residual activity,[39],97%
same,residual activity,[40],100%
same,residual activity,[41],100%
same,residual activity,[42],100%
same,residual activity,[43],100%
same,residual activity,[44],100%
same,residual activity,[45],96%
